Measurements from ChEMBL document CHEMBL5608182, “Synthesis and evaluation of neuroactive steroids with novel pharmacophore at C-21 let identify a compound with advantageous PK profile and higher EC50 and Emax as PAM on GABAA receptor” (Eur J Med Chem, 2024).

How the values were obtained:
[1] = AUClast in male Sprague-Dawley rat at 24.4 micromol/kg, IG administered as single dose and measured upto 24 hrs by LC-MS/MS analysis; assay type: ADME; conditions: in vivo, po, dose 24.4 µmol/kg
[2] = Apparent volume of distribution in male Sprague-Dawley rat at 6.1 micromol/kg, iv administered as single dose and measured upto 24 hrs by LC-MS/MS analysis; assay type: ADME, organism-based; conditions: in vivo, dose 6.1 µmol/kg, read-out: Vz
[3] = target: Cytochrome P450 2C9 (Homo sapiens, UniProt P11712); assay: Inhibition of CYP2C9 (unknown origin); assay type: ADME
Chain of Cytochrome P450 2C9 (P11712 whole entry): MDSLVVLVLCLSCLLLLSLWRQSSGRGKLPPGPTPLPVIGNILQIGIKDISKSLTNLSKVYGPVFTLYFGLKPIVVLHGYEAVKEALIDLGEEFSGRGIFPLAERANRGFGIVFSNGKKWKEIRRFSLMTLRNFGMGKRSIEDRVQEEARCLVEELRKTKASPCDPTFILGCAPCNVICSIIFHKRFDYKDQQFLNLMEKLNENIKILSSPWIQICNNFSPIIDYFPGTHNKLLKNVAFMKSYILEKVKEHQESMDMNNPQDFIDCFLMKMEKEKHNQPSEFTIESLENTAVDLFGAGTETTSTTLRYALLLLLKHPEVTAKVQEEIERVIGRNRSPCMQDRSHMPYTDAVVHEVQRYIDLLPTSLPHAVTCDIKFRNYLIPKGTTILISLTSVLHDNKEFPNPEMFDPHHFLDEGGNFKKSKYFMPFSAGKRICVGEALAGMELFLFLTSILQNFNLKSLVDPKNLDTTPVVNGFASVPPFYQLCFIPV

[4] = Tmax in male Sprague-Dawley rat at 24.4 micromol/kg, IG administered as single dose and measured upto 24 hrs by LC-MS/MS analysis; assay type: ADME; conditions: in vivo, po, dose 24.4 µmol/kg
[5] = Metabolic stability in Sprague-Dawley rat liver microsomes assessed as intrinsic clearance at 1 uM preincubated for 10 mins followed by NADPH addition by LC-MS analysis; assay type: ADME, Microsome; conditions: read-out: CLH
[6] = target: T1, Cytochrome P450 1A2 (Homo sapiens, UniProt P05177); assay: Inhibition of CYP1A2 (unknown origin); assay type: ADME
T1 sequence (P05177 whole entry): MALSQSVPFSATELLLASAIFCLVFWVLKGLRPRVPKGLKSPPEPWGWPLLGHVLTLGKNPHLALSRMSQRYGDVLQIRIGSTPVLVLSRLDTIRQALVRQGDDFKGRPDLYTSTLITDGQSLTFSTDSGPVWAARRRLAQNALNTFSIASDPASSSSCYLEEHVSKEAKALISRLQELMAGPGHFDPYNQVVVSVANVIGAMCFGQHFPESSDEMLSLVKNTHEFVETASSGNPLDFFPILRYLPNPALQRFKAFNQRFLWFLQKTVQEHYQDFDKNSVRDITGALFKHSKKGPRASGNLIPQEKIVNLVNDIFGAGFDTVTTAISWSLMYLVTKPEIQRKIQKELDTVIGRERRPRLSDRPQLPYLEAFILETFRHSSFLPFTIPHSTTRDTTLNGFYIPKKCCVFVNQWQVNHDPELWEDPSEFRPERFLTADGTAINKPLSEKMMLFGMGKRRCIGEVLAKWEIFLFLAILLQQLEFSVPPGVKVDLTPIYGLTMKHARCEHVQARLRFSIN

[7] = Drug concentration in Sprague-Dawley rat brain at 24.4 micromol/kg, IG measured after 6 hrs by LC-MS/MS analysis; assay type: ADME, tissue-based; conditions: in vivo, po, dose 24.4 µmol/kg
[8] = Metabolic stability in Sprague-Dawley rat liver microsomes assessed as compound remaining at 1 uM preincubated for 10 mins followed by NADPH addition by LC-MS analysis; assay type: ADME, Microsome; conditions: read-out: Stability
[9] = Half life in male Sprague-Dawley rat at 24.4 micromol/kg, IG administered as single dose and measured upto 24 hrs by LC-MS/MS analysis; assay type: ADME; conditions: in vivo, po, dose 24.4 µmol/kg
[10] = Bioavailability in male Sprague-Dawley rat at 24.4 micromol/kg, IG administered as single dose and measured upto 24 hrs by LC-MS/MS analysis; assay type: ADME, organism-based; conditions: in vivo, po, 24.4 µmol/kg
[11] = target: T2, GABA-A receptor; alpha-1/beta-2/gamma-2 (Homo sapiens, UniProt P14867+P18507+P47870); assay: Positive allosteric modulation of synaptic alpha1beta2gamma2 GABA-A receptor (unknown origin) transfected in LTK cells assessed as potentiation of GABA-induced peak current amplitude at -80 mV holding potential preincubated for 30 secs followed by GABA stimulation for 2 secs by Q-patch assay; assay type: cell-based
T2 sequence (P14867 whole entry): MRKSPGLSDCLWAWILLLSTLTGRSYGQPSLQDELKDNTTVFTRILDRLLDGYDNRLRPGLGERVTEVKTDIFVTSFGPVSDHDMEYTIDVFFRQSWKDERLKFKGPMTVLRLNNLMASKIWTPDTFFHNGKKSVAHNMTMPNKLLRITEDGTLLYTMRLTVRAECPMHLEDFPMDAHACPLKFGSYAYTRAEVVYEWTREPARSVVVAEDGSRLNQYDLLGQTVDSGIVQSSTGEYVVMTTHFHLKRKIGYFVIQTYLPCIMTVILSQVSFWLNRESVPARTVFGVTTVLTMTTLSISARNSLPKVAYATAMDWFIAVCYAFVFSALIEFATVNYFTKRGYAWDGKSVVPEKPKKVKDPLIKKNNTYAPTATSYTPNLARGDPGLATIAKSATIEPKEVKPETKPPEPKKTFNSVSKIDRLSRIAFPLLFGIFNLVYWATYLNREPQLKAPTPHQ
T2 sequence (P47870 whole entry): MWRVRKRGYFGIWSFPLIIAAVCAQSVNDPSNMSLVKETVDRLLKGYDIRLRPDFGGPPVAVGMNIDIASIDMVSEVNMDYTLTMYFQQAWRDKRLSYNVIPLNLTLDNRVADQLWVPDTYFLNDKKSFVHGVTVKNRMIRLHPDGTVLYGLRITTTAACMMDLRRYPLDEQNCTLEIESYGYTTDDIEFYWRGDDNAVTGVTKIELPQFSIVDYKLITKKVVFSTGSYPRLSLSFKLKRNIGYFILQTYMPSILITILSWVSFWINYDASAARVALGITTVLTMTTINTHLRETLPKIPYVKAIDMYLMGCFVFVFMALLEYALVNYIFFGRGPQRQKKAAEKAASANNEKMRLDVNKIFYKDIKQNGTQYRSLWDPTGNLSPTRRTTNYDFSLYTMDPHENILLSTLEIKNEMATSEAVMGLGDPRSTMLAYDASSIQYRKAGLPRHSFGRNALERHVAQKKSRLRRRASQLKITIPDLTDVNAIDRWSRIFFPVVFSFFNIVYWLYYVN
T2 sequence (P18507 whole entry): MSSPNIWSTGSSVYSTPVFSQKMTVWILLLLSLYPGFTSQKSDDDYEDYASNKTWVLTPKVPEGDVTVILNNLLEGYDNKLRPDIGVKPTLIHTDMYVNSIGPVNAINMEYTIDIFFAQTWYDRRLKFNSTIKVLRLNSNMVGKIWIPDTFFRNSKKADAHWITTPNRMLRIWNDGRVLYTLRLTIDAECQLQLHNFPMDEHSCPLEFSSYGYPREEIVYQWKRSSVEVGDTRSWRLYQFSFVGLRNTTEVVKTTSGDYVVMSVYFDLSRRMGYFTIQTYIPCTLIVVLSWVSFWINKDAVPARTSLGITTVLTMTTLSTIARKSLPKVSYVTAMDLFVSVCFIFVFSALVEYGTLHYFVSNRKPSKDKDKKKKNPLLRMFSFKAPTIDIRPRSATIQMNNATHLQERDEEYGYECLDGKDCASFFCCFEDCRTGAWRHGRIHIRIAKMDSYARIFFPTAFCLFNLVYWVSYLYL

[12] = target: Gamma-aminobutyric acid receptor subunit alpha-4/beta3/delta (Homo sapiens) (UniProt P28472+P48169+O14764); assay: Positive allosteric modulation of extrasynaptic alpha4beta3delta GABA-A receptor (unknown origin) transfected in CHO cells assessed as potentiation of GABA-induced peak current amplitude by measuring maximal efficacy at 0.01 to 10 uM at -80 mV holding potential preincubated for 30 secs followed by GABA stimulation for 2 secs by manual patch assay relative to control; assay type: cell-based; conditions: filed as positive allosteric modulator, dose 0.01-10 µM, time 32.0 sec
[13] = Drug concentration in Sprague-Dawley rat brain at 24.4 micromol/kg, IG measured after 0.5 hrs by LC-MS/MS analysis; assay type: ADME, tissue-based; conditions: in vivo, po, dose 24.4 µmol/kg
[14] = Cmax in male Sprague-Dawley rat at 24.4 micromol/kg, IG administered as single dose and measured upto 24 hrs by LC-MS/MS analysis; assay type: ADME; conditions: in vivo, po, dose 24.4 µmol/kg

Which AUC(0-t) at 24 h [1] does the source give for `C[C@@]1(O)CC[C@H]2[C@H](CC[C@@H]3[C@@H]2CC[C@]2(C)[C@@H](C(=O)Cn4cc(C#N)cn4)CC[C@@H]32)C1` [ZURANOLONE] here?
The AUC(0-t) at 24 h was 12 µM·h.

What about the Vd [2] of the same compound?
Its Vd is 4.66 L/kg.

And the IC50 [3]?
The IC50 was over 30 µM.

And the Tmax [4]?
Its Tmax is 1.17 h.

What about the CLint scaled at 1 µM [5] of the same compound?
The CLint scaled at 1 µM was 51.8 mL/min/kg.

And the IC50 [6]?
The IC50 was over 30 µM.

What about the Ct [7] of the same compound?
The Ct was 193 nmol/kg.

What about the remaining at 1 µM [8] of the same compound?
Its remaining at 1 µM is 40%.

And the half-life [9]?
The half-life was 3.8 h.

And the bioavailability [10]?
The bioavailability was 57.7%.

And the EC50 [11]?
The EC50 was 0.152 µM.

What about the Emax [12] of the same compound?
The Emax was 1040%.

And the Ct [13]?
The Ct was 3103 nmol/kg.

And the Cmax [14]?
Its Cmax is 2290 nM.

With `C[C@@]1(O)CC[C@H]2[C@H](CC[C@@H]3[C@@H]2CC[C@]2(C)[C@@H](C(=O)Cn4cnn(-c5cc(F)nc(F)c5)c4=O)CC[C@@H]32)C1` as the compound, how does the AUC(0-t) at 24 h [1] read?
Its AUC(0-t) at 24 h is 24 µM·h.

What about the Vd [2] of the same compound?
The Vd was 7.38 L/kg.

And the IC50 [3]?
The IC50 was over 30 µM.

And the Tmax [4]?
Its Tmax is 2.01 h.

And the CLint scaled at 1 µM [5]?
Its CLint scaled at 1 µM is 23 mL/min/kg.

And the IC50 [6]?
The IC50 was over 30 µM.

And the Ct [7]?
Its Ct is 2339 nmol/kg.

And the remaining at 1 µM [8]?
Its remaining at 1 µM is 68%.

What about the half-life [9] of the same compound?
The half-life was 6.58 h.

What about the bioavailability [10] of the same compound?
The bioavailability was 99.6%.

What about the EC50 [11] of the same compound?
The EC50 was 0.141 µM.

What about the Emax [12] of the same compound?
Its Emax is 1070%.

And the Ct [13]?
The Ct was 2320 nmol/kg.

And the Cmax [14]?
Its Cmax is 2530 nM.
